# Measurements reported in PMC10137938 (Foods, 2023).
# Residues, ends and D or L forms follow the SMILES beside them.
# Molecular target: Angiotensin-converting enzyme (ACE) (UniProt P12821)
# Experiment: not given
# Details: not given
# Sequence of Angiotensin-converting enzyme (ACE) (P12821 30-1306): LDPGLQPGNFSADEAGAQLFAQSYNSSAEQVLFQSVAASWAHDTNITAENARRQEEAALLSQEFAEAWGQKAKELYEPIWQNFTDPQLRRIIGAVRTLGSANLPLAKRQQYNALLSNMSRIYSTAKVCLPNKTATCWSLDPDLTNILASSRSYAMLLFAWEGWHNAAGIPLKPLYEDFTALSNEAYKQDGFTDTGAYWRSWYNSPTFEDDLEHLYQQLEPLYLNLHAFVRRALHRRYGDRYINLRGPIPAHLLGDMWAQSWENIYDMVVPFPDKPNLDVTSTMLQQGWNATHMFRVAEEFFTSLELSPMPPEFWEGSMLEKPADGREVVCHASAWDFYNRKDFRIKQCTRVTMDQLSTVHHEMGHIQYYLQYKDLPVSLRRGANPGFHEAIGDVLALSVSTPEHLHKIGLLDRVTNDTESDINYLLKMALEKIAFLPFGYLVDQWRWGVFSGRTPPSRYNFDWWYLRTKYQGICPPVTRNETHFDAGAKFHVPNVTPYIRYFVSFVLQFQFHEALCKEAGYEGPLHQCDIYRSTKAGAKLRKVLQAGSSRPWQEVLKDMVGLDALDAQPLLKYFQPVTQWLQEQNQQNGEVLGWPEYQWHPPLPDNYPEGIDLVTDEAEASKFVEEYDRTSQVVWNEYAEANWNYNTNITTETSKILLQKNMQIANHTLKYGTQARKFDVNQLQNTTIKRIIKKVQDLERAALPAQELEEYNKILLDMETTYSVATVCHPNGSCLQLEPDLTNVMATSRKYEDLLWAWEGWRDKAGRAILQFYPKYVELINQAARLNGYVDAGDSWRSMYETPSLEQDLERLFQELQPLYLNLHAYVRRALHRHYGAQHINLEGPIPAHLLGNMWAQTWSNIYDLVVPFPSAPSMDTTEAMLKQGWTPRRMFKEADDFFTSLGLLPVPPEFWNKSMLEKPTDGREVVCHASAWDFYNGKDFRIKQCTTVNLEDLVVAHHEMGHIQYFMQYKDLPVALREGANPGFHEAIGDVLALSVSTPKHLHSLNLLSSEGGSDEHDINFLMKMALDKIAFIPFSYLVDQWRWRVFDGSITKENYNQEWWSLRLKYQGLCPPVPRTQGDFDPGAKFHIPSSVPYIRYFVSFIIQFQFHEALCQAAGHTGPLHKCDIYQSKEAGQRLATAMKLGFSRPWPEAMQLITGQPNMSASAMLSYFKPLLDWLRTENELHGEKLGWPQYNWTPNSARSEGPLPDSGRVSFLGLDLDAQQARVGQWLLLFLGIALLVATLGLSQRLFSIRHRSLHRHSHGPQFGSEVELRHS
row,"IC50 of inhibition of ACE activity (hydrolysis of HHL to hippuric acid, HPLC at 228 nm, 37 °C) [µM]",Molecule
1,115,tetrapeptide RRYQ
2,31.8,tetrapeptide WFRV
3,129,RWWD [tetrapeptide RWWD]
4,141,WRFF [tetrapeptide WRFF]
5,148,WFSW [tetrapeptide WFSW]
6,26.4,WWNW [tetrapeptide WWNW]
7,29.6,WRQF [tetrapeptide WRQF]
8,20,YYWK [tetrapeptide YYWK]
9,28.5,WWTY [tetrapeptide WWTY]
10,36.8,WWDW [tetrapeptide WWDW]

# Molecular target: ACE (Homo sapiens, UniProt P12821)
# Experiment: Assay of ACE inhibitory activity (HHL hydrolysis, HPLC of hippuric acid)
# Format: biochemical
# Details: in vitro; substrate HHL, borate buffer, 37 °C, 5 min coincubation with HHL, 30 min reaction, HCl stop; 7 concentrations; HPLC C18 at 228 nm; GraphPad Prism 7.0
# Description: IC50 refers to the semi-inhibitory concentration; here, the principle of in vitro IC50 determination of the potential ACE inhibitory peptide is that ACE can hydrolyse HHL into […] and dipeptide. HHL and tetrapeptide are competitive, and when ACE binds to the tetrapeptide, it will reduce the production of the product […]; the IC50 activity of the tetrapeptide is when it is reduced by half of the original concentration. The water bath temperature was controlled at 37 °C, and the initial mass concentration of each tetrapeptide was […]. The tetrapeptide was diluted with borate buffer solution into 7 concentration gradients, and coincubated with HHL buffer for 5 min. Then, the ACE solution was added to initiate the reaction, and the reaction was terminated by the addition of HCl after 30 min of system reaction. Afterwards, the reaction was analysed on a C18 column, with HPLC detection at 228 nm and an injection volume of 10 μL. The mobile phases were water and acetonitrile at 75% and 25%, respectively, with a flow rate of 1 mL/min, and isocratic elution for 7 min (acetonitrile and water containing 0.1% trifluoroacetic acid). ACE inhibition was calculated as ACE inhibition = ((b − c) − (a − c))/(b − c) × 100% (a: peak area of hippuric acid in the experimental group; b: peak area of hippuric acid in the blank group; c: peak area of hippuric acid in the control group), and the inhibition rate was converted into IC50 values by the software graphpad prism 7.0.
# Sequence of ACE (P12821 30-1306, species assumed): as the sequence (P12821 30-1306) above
row,IC50 [µM],Molecule
1,31.8 ± 0.83,CC(C)[C@H](NC(=O)[C@H](CCCNC(=N)N)NC(=O)[C@H](Cc1ccccc1)NC(=O)[C@@H](N)Cc1c[nH]c2ccccc12)C(=O)O [WFRV] (H-WFRV-OH)
2,29.6 ± 6.75,N=C(N)NCCC[C@H](NC(=O)[C@@H](N)Cc1c[nH]c2ccccc12)C(=O)N[C@@H](CCC(N)=O)C(=O)N[C@@H](Cc1ccccc1)C(=O)O [WRQF] (H-WRQF-OH)
3,141 ± 3.9,N=C(N)NCCC[C@H](NC(=O)[C@@H](N)Cc1c[nH]c2ccccc12)C(=O)N[C@@H](Cc1ccccc1)C(=O)N[C@@H](Cc1ccccc1)C(=O)O [WRFF] (H-WRFF-OH)
4,> 5000,N[C@@H](CO)C(=O)NCC(=O)NCC(=O)NCC(=O)O [SGGG] (H-SGGG-OH)
5,115 ± 6.15,N=C(N)NCCC[C@H](NC(=O)[C@@H](N)CCCNC(=N)N)C(=O)N[C@@H](Cc1ccc(O)cc1)C(=O)N[C@@H](CCC(N)=O)C(=O)O [RRYQ] (H-RRYQ-OH)
6,> 5000,NCC(=O)NCC(=O)N[C@@H](CO)C(=O)NCC(=O)O [GGSG] (H-GGSG-OH)
7,36.8 ± 1.32,N[C@@H](Cc1c[nH]c2ccccc12)C(=O)N[C@@H](Cc1c[nH]c2ccccc12)C(=O)N[C@@H](CC(=O)O)C(=O)N[C@@H](Cc1c[nH]c2ccccc12)C(=O)O [WWDW] (H-WWDW-OH)
8,26.4 ± 3.81,NC(=O)C[C@H](NC(=O)[C@H](Cc1c[nH]c2ccccc12)NC(=O)[C@@H](N)Cc1c[nH]c2ccccc12)C(=O)N[C@@H](Cc1c[nH]c2ccccc12)C(=O)O [WWNW] (H-WWNW-OH)
9,28.5 ± 0.99,C[C@@H](O)[C@H](NC(=O)[C@H](Cc1c[nH]c2ccccc12)NC(=O)[C@@H](N)Cc1c[nH]c2ccccc12)C(=O)N[C@@H](Cc1ccc(O)cc1)C(=O)O [WWTY] (H-WWTY-OH)
10,129 ± 8.32,N=C(N)NCCC[C@H](N)C(=O)N[C@@H](Cc1c[nH]c2ccccc12)C(=O)N[C@@H](Cc1c[nH]c2ccccc12)C(=O)N[C@@H](CC(=O)O)C(=O)O [RWWD] (H-RWWD-OH)
11,148 ± 14.3,N[C@@H](Cc1c[nH]c2ccccc12)C(=O)N[C@@H](Cc1ccccc1)C(=O)N[C@@H](CO)C(=O)N[C@@H](Cc1c[nH]c2ccccc12)C(=O)O [WFSW] (H-WFSW-OH)

row,Molecule,IC50 [µM]
1,NCCCC[C@H](NC(=O)[C@H](Cc1c[nH]c2ccccc12)NC(=O)[C@H](Cc1ccc(O)cc1)NC(=O)[C@@H](N)Cc1ccc(O)cc1)C(=O)O [YYWK] (H-YYWK-OH),20 ± 8.19
